Source: patent US12629384B2, “Use of 8,9-dihydrocannabidiol compounds” (The Regents of the University of California, priority 2019, dated 2026)

Columns and labels:
[1] = test system: PTZ-induced generalised seizures; assay: acute PTZ-induced generalised seizures in rat (antiseizure study); assay type: in vivo; conditions: for maximum seizure severity, median (IQR) / percentage of animals that exhibited tonic-clonic seizures: 200 mg kg^-1 i.p. 1 h before PTZ 85 mg kg^-1; for maximum seizure severity, median (IQR): vehicle median 5, P<0.001 vs vehicle; for percentage of animals that exhibited tonic-clonic seizures: vs vehicle treated group, P<0.05
Experimental: Animals: Male, Wistar Han rats (70-110 g; Harlan, Bicester, UK) were housed on a 12 h light-dark cycle, with food and water available ad libitum. All experiments were conducted in accordance with the UK Animals (Scientific Procedures) Act, 1986 and ARRIVE guidelines for reporting experiments involving animals; 60 rats were used in total.
Drug administration: Animals were randomly divided into 5 groups of 12 animals per group and received either vehicle (ethanol, Cremophor EL and saline (0.9% w/v NaCl), 2:1:17), a positive control (cannabidiol; CBD; 200 mg kg^−1; Sigma-Aldrich, UK) or 8,9-dihydrocannabidiol (H2CBD; 50, 100 or 200 mg kg^−1) via i.p. injection 1 h prior to administration of the convulsant agent to achieve brain cannabinoid Tmax. The convulsant agent pentylenetetrazole (PTZ; 85 mg kg^−1 in 0.9% w/v NaCl) was administered i.p. 1 h after drug or vehicle treatment. Seizure activity was video recorded for 30 min and video records blinded before offline review and coding using a modified Racine scale (0, normal behaviour; 0.5, abnormal behaviour; 1, isolated myoclonic jerk; 2, atypical clonic seizure; 3, bilateral forelimb clonus; 3.5, bilateral forelimb clonus with body twist; 4, tonic-clonic seizure with suppressed tonic phase; 5, fully developed tonic-clonic seizure).
(§1) Statistics: Statistical procedures were performed using GraphPad Prism 7 (GraphPad Software, Inc., San Diego, CA, USA).
In the present study, 60 male, Wistar Han rats were randomly divided into 5 groups of 12 animals each and received either vehicle (ethanol, Cremophor EL, 0.9% w/v saline; 2:1:17), vehicle plus a positive control (CBD; 200 mg kg^−1), or vehicle plus H2CBD (50, 100, or 200 mg kg^−1) via intraperitoneal injection one hour prior to administration of the convulsant agent pentylenetetrazole (PTZ; 85 mg kg^−1 in 0.9% w/v saline).

[2] = blood and brain concentrations post-mortem by HPLC; assay type: in vivo, rat; conditions: samples 90 minutes after administration
Experimental: Assessment of bioanalytes: Chemicals and reagents. 4,4-Dichlorodiphenyltrichloroethane (DDT, CAS: 50-29-3) was used as the internal analytical standard (IS). HPLC grade n-hexane, acetonitrile, water and ascorbic acid were purchased from Sigma Aldrich (UK) and Fisher Scientific.
Analysis of plasma and brain samples: Stock standard solutions of CBD, H2CBD and DDT were prepared in acetonitrile (5 mg/ml and 1 mg/mL) and stored at −20° C. until use. These were further diluted in acetonitrile:water (62:38), to achieve calibration concentrations of 0.1, 0.2, 0.5, 1.5, 10 μg/mL. Plasma samples were prepared for HPLC using a previously validated method. Briefly, DDT ([…]) was added to 150 μL of rat plasma sample as internal standard and plasma proteins were precipitated by the addition of 600 μL of ice cold acetonitrile followed by water (600 μL), with 1 min vortexing between additions. n-Hexane (3 mL) was added to each tube and following a 5 min vortex, tubes were centrifuged at 1160×g for 15 min at 10° C. and the upper organic layer was carefully decanted by glass pipette and retained. The organic layer was evaporated to dryness under a stream of nitrogen at room temperature and reconstituted in 150 μL of the mixture of acetonitrile and water (62:38) prior to HPLC analysis.
For brain analysis, brains were weighed and 1.5× ice-cold solvent (90% acetonitrile; 10% water; 0.1% ascorbic acid) (w/v) was added followed by homogenization for 1 min. DDT (50 μg/ml) was added to each homogenized brain tissue as internal standard, samples were mixed and allowed to equilibrate overnight at −20° C. Samples were then centrifuged at 3500 rpm for 15 min and the top layer retained. Samples were dried by SpeedVac concentrator at room temperature (Savant SPD131DDA, ThermoFisher Scientific, UK) and reconstituted in 150 μL of the mixture of acetonitrile and water (62:38) for HPLC analysis.
HPLC analysis: An Agilent 1200 series HPLC (Hewlett-Packard, Palo Alto, CA, USA) equipped with a photodiode array detector was used for analysis. 30 μl of all samples were injected and separation was achieved using an ACE C18-PFP 150 mm×4.6 mm, 3 μm particle size column (Hichrom Ltd., Reading, UK), protected by an ACE C18-PFP […] guard cartridge. The mobile phase was a mixture of acetonitrile and water in a ratio of 62:38 (v/v). The flow rate was set at 1 mL/min and column temperature was maintained at 55° C. The absorbance of all compounds of interest (CBD and DH-CBD) was monitored at 220 nm.
as §1

rodent behavior [3] = assay: EPM test; assay type: in vivo, rat; conditions: 200 mg kg^-1 i.p., 45 minutes post injection; drug vs vehicle; p=0.49
Experimental: (§2) 12 adult male Sprague Dawley rats were divided at random into two groups of 6 animals each and received either vehicle (Kolliphor RH-40, dmso, 0.9% w/v saline, 1:2:7) or vehicle plus H2CBD (200 mg kg^−1), administered by intraperitoneal injection. The vehicle differed in this case from the anti-seizure study to avoid the potentially confounding effect of alcohol. The number of animals was also limited to the lowest population necessary to establish an effect at the maximum dosage of drug. At 45 minutes post vehicle and drug injections, rats were placed in the center of the EPM and time spent on the open versus closed arms of the maze was recorded. After an interval of two weeks, the same 12 rats were again divided at random into two groups of 6 animals each and dosed as above. Spontaneous locomotor activity was measured 45 minutes after injection by placing the animals in the center of a 16″×16″ arena. Free movement was allowed for 30 minutes and recorded using an automated activity monitoring system.

rodent behavior [4] = assay: open field test, spontaneous locomotor activity; assay type: in vivo, rat
Experimental: as §2

cytochrome P450 = conditions: hepatic microsomal metabolism; consistent with CBD; cited from earlier work
murine macrophages = conditions: consistent with CBD; cited from earlier work
[5] = in contrast to CBD; cited from earlier work
[6] = simulated gastric fluid, within one hour; cited from earlier work

## CCCCCc1cc(O)c([C@@H]2C=C(C)CC[C@H]2C(C)C)c(O)c1 (relative stereo) [Example H2CBD, 2-(6-Isopropyl-3-methylcyclohex-2-en-1-yl)-5-pentylbenzene-1,3-diol]
[1]
  maximum seizure severity, median (IQR): 2 (0.25-4.25 IQR) Racine scale
  percentage of animals that exhibited tonic-clonic seizures: significantly fewer animals
[1]; 50, 100, 200 mg kg^-1 i.p., maximal protective effect comparable to matching dose of CBD
  anticonvulsant action: dose-dependent anticonvulsant action
[2]; 100 mg/kg i.p., P<0.05
  blood concentration vs vehicle treated group: significant concentrations
[2]; 200 mg/kg i.p., P<0.01
  blood concentration vs vehicle treated group: significant concentrations
  brain tissue concentration vs vehicle treated group: significant concentrations
Rodent behavior [3]
  percent time spent on the open arms: No statistically significant differences
Rodent behavior [4]; 200 mg kg^-1 i.p., 30 min from 45 minutes after injection, drug vs vehicle, P=0.95
  horizontal distance traveled: no statistically significant differences
Rodent behavior [4]; 200 mg kg^-1 i.p., 30 min from 45 minutes after injection, drug vs vehicle, p=0.14
  time in the arena center: no statistically significant differences
Rodent behavior [4]; 200 mg kg^-1 i.p., 30 min from 45 minutes after injection, drug vs vehicle, p=0.25
  vertical activity: no statistically significant differences
Rodent behavior [4]; high dosage, 200 mg kg^-1
  behavioral effects (EPM and open field overall): no measurable behavioral effects
Cytochrome P450
  effect on cytochrome P450: inhibitory effect
Murine macrophages
  antioxidant activity: antioxidant activity
[5]
  sedative activity: little if any evidence of sedative activity

## C=C(C)[C@@H]1CCC(C)=C[C@H]1c1c(O)cc(CCCCC)cc1O [CBD, cannabidiol]
[1]
  maximum seizure severity, median (IQR): 2 (0.25-3.75 IQR) Racine scale
  percentage of animals that exhibited tonic-clonic seizures: significantly fewer animals
[2]; 200 mg/kg i.p., P<0.01
  brain tissue concentration vs vehicle treated group: significant concentrations
[6]
  degradation mainly to Δ8- and Δ9-THCs: nearly complete degradation
